In PubChem BioAssay AID2060512 (Molecular Pharmacology Branch, DTP, NCI, 2025):

Tested on: 186277-243-T-J2-PDC complex spheroid viability
Assay: Anticancer human tumor 186277-243-T-J2-PDC patient-derived colon adenocarcinoma cell line growth inhibition [GQUAD]
Settings: for IC50: curve of first compound; for viability, T/C: stronger effect = lower value
Outline: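 Tumor cells were grown as complex spheroids with HUVEC endothelial cells and mesenchymal stem cells as stroma. G-quadruplex stabilizers were combined with targeted agents over half-log dilutions from near the clinical Cmax, or from 10 microM.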
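Further: spheroids exposed to drugs for 7 days.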
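Wherever viability, T/C is given: 100% = DMSO vehicle control viability.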

Question: For `CC(C)n1c(=O)n(C)c2cnc3cc(F)c(-c4ccc(OCCCN5CCCCC5)nc4)cc3c21` + Cc1[nH]c2ccc(F)cc2c1-c1nc2c3cccnc3c3ncccc3c2[nH]1, which IC50 (second compound 0.0316 µM) is on record?
Answer: > 10 µM

Question: And the IC50 (second compound 0.1 µM)?
Answer: > 10 µM

Question: What about the IC50 (second compound 0.316 µM) of the same compound?
Answer: > 10 µM

Question: What about the IC50 (second compound 1 µM) of the same compound?
Answer: > 10 µM

Question: And the IC50 (second compound 3.16 µM)?
Answer: > 10 µM

Question: And the IC50 (second compound 10 µM)?
Answer: > 10 µM

Question: What about the viability, T/C (second compound 0.0316 µM, first compound 0.0316 µM) of the same compound?
Answer: 102%

Question: And the viability, T/C (second compound 0.0316 µM, first compound 0.1 µM)?
Answer: 94.9%

Question: And the viability, T/C (second compound 0.0316 µM, first compound 0.316 µM)?
Answer: 106%

Question: What about the viability, T/C (second compound 0.0316 µM, first compound 1 µM) of the same compound?
Answer: 95.5%

Question: And the viability, T/C (second compound 0.0316 µM, first compound 3.16 µM)?
Answer: 101%

Question: And the viability, T/C (second compound 0.0316 µM, first compound 10 µM)?
Answer: 83.6%

Question: What about the viability, T/C (second compound 0.1 µM, first compound 0.0316 µM) of the same compound?
Answer: 108%

Question: And the viability, T/C (second compound 0.1 µM, first compound 0.1 µM)?
Answer: 91.4%

Question: And the viability, T/C (second compound 0.1 µM, first compound 0.316 µM)?
Answer: 99.6%

Question: What about the viability, T/C (second compound 0.1 µM, first compound 1 µM) of the same compound?
Answer: 104%

Question: And the viability, T/C (second compound 0.1 µM, first compound 3.16 µM)?
Answer: 93.6%

Question: What about the viability, T/C (second compound 0.1 µM, first compound 10 µM) of the same compound?
Answer: 89.2%

Question: What about the viability, T/C (second compound 0.316 µM, first compound 0.0316 µM) of the same compound?
Answer: 83.3%

Question: What about the viability, T/C (second compound 0.316 µM, first compound 0.1 µM) of the same compound?
Answer: 105%

Question: What about the viability, T/C (second compound 0.316 µM, first compound 0.316 µM) of the same compound?
Answer: 101%

Question: And the viability, T/C (second compound 0.316 µM, first compound 1 µM)?
Answer: 89.5%

Question: What about the viability, T/C (second compound 0.316 µM, first compound 3.16 µM) of the same compound?
Answer: 113%

Question: And the viability, T/C (second compound 0.316 µM, first compound 10 µM)?
Answer: 98.5%

Question: And the viability, T/C (second compound 1 µM, first compound 0.0316 µM)?
Answer: 87.9%

Question: What about the viability, T/C (second compound 1 µM, first compound 0.1 µM) of the same compound?
Answer: 89.8%

Question: And the viability, T/C (second compound 1 µM, first compound 0.316 µM)?
Answer: 104%

Question: What about the viability, T/C (second compound 1 µM, first compound 1 µM) of the same compound?
Answer: 102%

Question: And the viability, T/C (second compound 1 µM, first compound 3.16 µM)?
Answer: 100%

Question: What about the viability, T/C (second compound 1 µM, first compound 10 µM) of the same compound?
Answer: 97.7%

Question: What about the viability, T/C (second compound 3.16 µM, first compound 0.0316 µM) of the same compound?
Answer: 91.7%

Question: What about the viability, T/C (second compound 3.16 µM, first compound 0.1 µM) of the same compound?
Answer: 90.2%

Question: What about the viability, T/C (second compound 3.16 µM, first compound 0.316 µM) of the same compound?
Answer: 105%

Question: What about the viability, T/C (second compound 3.16 µM, first compound 1 µM) of the same compound?
Answer: 103%

Question: What about the viability, T/C (second compound 3.16 µM, first compound 3.16 µM) of the same compound?
Answer: 103%

Question: What about the viability, T/C (second compound 3.16 µM, first compound 10 µM) of the same compound?
Answer: 96.3%

Question: What about the viability, T/C (second compound 10 µM, first compound 0.0316 µM) of the same compound?
Answer: 96%

Question: And the viability, T/C (second compound 10 µM, first compound 0.1 µM)?
Answer: 94.7%

Question: And the viability, T/C (second compound 10 µM, first compound 0.316 µM)?
Answer: 104%

Question: And the viability, T/C (second compound 10 µM, first compound 1 µM)?
Answer: 104%

Question: And the viability, T/C (second compound 10 µM, first compound 3.16 µM)?
Answer: 89%

Question: What about the viability, T/C (second compound 10 µM, first compound 10 µM) of the same compound?
Answer: 93.3%
